Experimental data reported in PubChem BioAssay (NCI).
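Values below derive from 48-hour exposures of cells grown in 96-well plates, with endpoints linearly interpolated between the two concentrations bracketing the appropriate inhibition level. GI50 = concentration required for 50% inhibition of growth. TGI: total growth inhibition.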

What was measured:
Test in all cases: NCI anticancer screen, dose series, 48 h
CAKI-1 renal = test system: CAKI-1 renal
RPMI-8226 leukemia = test system: RPMI-8226 leukemia
UO-31 renal = test system: UO-31 renal
MDA-MB-231 breast = test system: MDA-MB-231 breast
HCT-15 colon = test system: HCT-15 colon
SK-MEL-28 melanoma = test system: SK-MEL-28 melanoma
RXF 393 renal = test system: RXF 393 renal
HOP-92 NSCLC = test system: HOP-92 NSCLC
A549 NSCLC = test system: A549 NSCLC
OVCAR-5 ovarian = test system: OVCAR-5 ovarian
HL-60(TB) leukemia = test system: HL-60(TB) leukemia
ACHN renal = test system: ACHN renal
A498 renal = test system: A498 renal
SNB-75 CNS = test system: SNB-75 CNS
NCI-H522 lung = test system: NCI-H522 lung
KM12 colon = test system: KM12 colon
OVCAR-4 ovarian = test system: OVCAR-4 ovarian
SF-295 CNS = test system: SF-295 CNS
MOLT-4 leukemia = test system: MOLT-4 leukemia
MCF7 breast = test system: MCF7 breast
DU-145 prostate = test system: DU-145 prostate
SF-539 CNS = test system: SF-539 CNS
SK-MEL-5 melanoma = test system: SK-MEL-5 melanoma
HCT-116 colon = test system: HCT-116 colon
UACC-257 melanoma = test system: UACC-257 melanoma
HCC-2998 colon = test system: HCC-2998 colon
TK-10 renal = test system: TK-10 renal
HOP-62 NSCLC = test system: HOP-62 NSCLC
NCI-H226 lung = test system: NCI-H226 lung
NCI/ADR-RES ovarian = test system: NCI/ADR-RES ovarian
T-47D breast = test system: T-47D breast
IGROV1 ovarian = test system: IGROV1 ovarian
786-0 renal = test system: 786-0 renal
MDA-MB-435 = test system: MDA-MB-435
HS 578T breast = test system: HS 578T breast
NCI-H23 lung = test system: NCI-H23 lung
OVCAR-8 ovarian = test system: OVCAR-8 ovarian
COLO 205 colon = test system: COLO 205 colon
BT-549 breast = test system: BT-549 breast
SK-OV-3 ovarian = test system: SK-OV-3 ovarian
SN12C renal = test system: SN12C renal
LOX IMVI melanoma = test system: LOX IMVI melanoma
SK-MEL-2 melanoma = test system: SK-MEL-2 melanoma
U251 CNS = test system: U251 CNS
K-562 leukemia = test system: K-562 leukemia
SR leukemia = test system: SR leukemia
M14 melanoma = test system: M14 melanoma
SW-620 colon = test system: SW-620 colon
PC-3 prostate = test system: PC-3 prostate
CCRF-CEM leukemia = test system: CCRF-CEM leukemia
NCI-H460 lung = test system: NCI-H460 lung
HT29 colon = test system: HT29 colon
EKVX NSCLC = test system: EKVX NSCLC
SF-268 CNS = test system: SF-268 CNS
SNB-19 CNS = test system: SNB-19 CNS
UACC-62 melanoma = test system: UACC-62 melanoma

With `COc1ccc(Cn2cc3c(c2-c2cc(OC)c(OC)c(OC)c2)CCCc2cnoc2-3)cc1N` as the compound, how does the GI50 (CAKI-1 renal) read?
The GI50 was 491 nM.

And the TGI (CAKI-1 renal)?
Its TGI is greater than 100000 nM.

And the GI50 (RPMI-8226 leukemia)?
The GI50 was 935 nM.

What about the TGI (RPMI-8226 leukemia) of the same compound?
Its TGI is greater than 33400 nM.

What about the GI50 (UO-31 renal) of the same compound?
The GI50 was 761 nM.

And the TGI (UO-31 renal)?
Its TGI is greater than 100000 nM.

And the GI50 (MDA-MB-231 breast)?
The GI50 was 1580 nM.

What about the TGI (MDA-MB-231 breast) of the same compound?
Its TGI is greater than 100000 nM.

And the GI50 (HCT-15 colon)?
Its GI50 is 543 nM.

And the TGI (HCT-15 colon)?
Its TGI is greater than 100000 nM.

What about the GI50 (SK-MEL-28 melanoma) of the same compound?
Its GI50 is 3050 nM.

What about the TGI (SK-MEL-28 melanoma) of the same compound?
The TGI was greater than 67700 nM.

What about the GI50 (RXF 393 renal) of the same compound?
The GI50 was 412 nM.

What about the TGI (RXF 393 renal) of the same compound?
Its TGI is 3700 nM.

And the GI50 (HOP-92 NSCLC)?
The GI50 was 432 nM.

What about the TGI (HOP-92 NSCLC) of the same compound?
The TGI was 4820 nM.

And the GI50 (A549 NSCLC)?
The GI50 was 1450 nM.

And the TGI (A549 NSCLC)?
The TGI was greater than 100000 nM.

What about the GI50 (OVCAR-5 ovarian) of the same compound?
Its GI50 is 1840 nM.

And the TGI (OVCAR-5 ovarian)?
Its TGI is greater than 100000 nM.

And the GI50 (HL-60(TB) leukemia)?
The GI50 was 333 nM.

And the GI50 (ACHN renal)?
The GI50 was 669 nM.

What about the TGI (ACHN renal) of the same compound?
The TGI was greater than 100000 nM.

What about the GI50 (A498 renal) of the same compound?
Its GI50 is 407 nM.

And the TGI (A498 renal)?
The TGI was 2880 nM.

What about the GI50 (SNB-75 CNS) of the same compound?
Its GI50 is 384 nM.

What about the TGI (SNB-75 CNS) of the same compound?
Its TGI is 9220 nM.

What about the GI50 (NCI-H522 lung) of the same compound?
The GI50 was 306 nM.

And the TGI (NCI-H522 lung)?
Its TGI is 1530 nM.

What about the GI50 (KM12 colon) of the same compound?
The GI50 was 632 nM.

And the TGI (KM12 colon)?
The TGI was greater than 100000 nM.

And the GI50 (OVCAR-4 ovarian)?
Its GI50 is 5130 nM.

What about the TGI (OVCAR-4 ovarian) of the same compound?
Its TGI is greater than 100000 nM.

And the GI50 (SF-295 CNS)?
The GI50 was 468 nM.

What about the TGI (SF-295 CNS) of the same compound?
The TGI was greater than 100000 nM.

What about the GI50 (MOLT-4 leukemia) of the same compound?
Its GI50 is 1110 nM.

And the TGI (MOLT-4 leukemia)?
The TGI was greater than 100000 nM.

What about the GI50 (MCF7 breast) of the same compound?
The GI50 was 392 nM.

And the TGI (MCF7 breast)?
The TGI was greater than 100000 nM.

And the GI50 (DU-145 prostate)?
The GI50 was 1450 nM.

What about the TGI (DU-145 prostate) of the same compound?
Its TGI is greater than 100000 nM.

What about the GI50 (SF-539 CNS) of the same compound?
The GI50 was 426 nM.

And the TGI (SF-539 CNS)?
The TGI was 4320 nM.

And the GI50 (SK-MEL-5 melanoma)?
The GI50 was 1010 nM.

And the TGI (SK-MEL-5 melanoma)?
Its TGI is greater than 37200 nM.

And the GI50 (HCT-116 colon)?
Its GI50 is 423 nM.

What about the TGI (HCT-116 colon) of the same compound?
Its TGI is greater than 100000 nM.

And the GI50 (UACC-257 melanoma)?
Its GI50 is 578 nM.

And the TGI (UACC-257 melanoma)?
Its TGI is greater than 100000 nM.

And the GI50 (HCC-2998 colon)?
The GI50 was 1670 nM.

And the TGI (HCC-2998 colon)?
The TGI was greater than 32000 nM.

What about the GI50 (TK-10 renal) of the same compound?
The GI50 was 98300 nM.

What about the TGI (TK-10 renal) of the same compound?
The TGI was greater than 100000 nM.

And the GI50 (HOP-62 NSCLC)?
The GI50 was 814 nM.

What about the TGI (HOP-62 NSCLC) of the same compound?
Its TGI is greater than 100000 nM.

What about the GI50 (NCI-H226 lung) of the same compound?
The GI50 was 1590 nM.

And the TGI (NCI-H226 lung)?
The TGI was greater than 100000 nM.

What about the GI50 (NCI/ADR-RES ovarian) of the same compound?
Its GI50 is 699 nM.

What about the TGI (NCI/ADR-RES ovarian) of the same compound?
Its TGI is greater than 100000 nM.

And the GI50 (T-47D breast)?
The GI50 was 590 nM.

And the TGI (T-47D breast)?
The TGI was greater than 100000 nM.

What about the GI50 (IGROV1 ovarian) of the same compound?
The GI50 was 1040 nM.

And the TGI (IGROV1 ovarian)?
Its TGI is greater than 100000 nM.

And the GI50 (786-0 renal)?
The GI50 was 823 nM.

And the TGI (786-0 renal)?
Its TGI is greater than 100000 nM.

And the GI50 (MDA-MB-435)?
Its GI50 is 240 nM.

And the TGI (MDA-MB-435)?
The TGI was 633 nM.

And the GI50 (HS 578T breast)?
The GI50 was 404 nM.

And the TGI (HS 578T breast)?
The TGI was 6400 nM.

What about the GI50 (NCI-H23 lung) of the same compound?
Its GI50 is 1750 nM.

What about the TGI (NCI-H23 lung) of the same compound?
The TGI was greater than 100000 nM.

And the GI50 (OVCAR-8 ovarian)?
The GI50 was 2140 nM.

What about the TGI (OVCAR-8 ovarian) of the same compound?
Its TGI is greater than 100000 nM.

What about the GI50 (COLO 205 colon) of the same compound?
Its GI50 is 532 nM.

And the TGI (COLO 205 colon)?
Its TGI is 2140 nM.

And the GI50 (BT-549 breast)?
Its GI50 is 436 nM.

And the TGI (BT-549 breast)?
The TGI was 2730 nM.

What about the GI50 (SK-OV-3 ovarian) of the same compound?
Its GI50 is 957 nM.

What about the TGI (SK-OV-3 ovarian) of the same compound?
Its TGI is greater than 100000 nM.

What about the GI50 (SN12C renal) of the same compound?
The GI50 was 1750 nM.

What about the TGI (SN12C renal) of the same compound?
The TGI was greater than 100000 nM.

What about the GI50 (LOX IMVI melanoma) of the same compound?
The GI50 was 643 nM.

What about the TGI (LOX IMVI melanoma) of the same compound?
Its TGI is greater than 100000 nM.

What about the GI50 (SK-MEL-2 melanoma) of the same compound?
Its GI50 is 651 nM.

What about the TGI (SK-MEL-2 melanoma) of the same compound?
Its TGI is greater than 100000 nM.

And the GI50 (U251 CNS)?
The GI50 was 768 nM.

And the TGI (U251 CNS)?
The TGI was greater than 100000 nM.

What about the GI50 (K-562 leukemia) of the same compound?
Its GI50 is 404 nM.

And the TGI (K-562 leukemia)?
Its TGI is greater than 100000 nM.

What about the GI50 (SR leukemia) of the same compound?
The GI50 was 405 nM.

What about the TGI (SR leukemia) of the same compound?
Its TGI is greater than 100000 nM.

What about the GI50 (M14 melanoma) of the same compound?
The GI50 was 501 nM.

What about the TGI (M14 melanoma) of the same compound?
Its TGI is greater than 100000 nM.

And the GI50 (SW-620 colon)?
Its GI50 is 449 nM.

What about the TGI (SW-620 colon) of the same compound?
The TGI was greater than 100000 nM.

And the GI50 (PC-3 prostate)?
The GI50 was 463 nM.

And the TGI (PC-3 prostate)?
Its TGI is greater than 100000 nM.

And the GI50 (CCRF-CEM leukemia)?
The GI50 was 430 nM.

And the TGI (CCRF-CEM leukemia)?
Its TGI is greater than 100000 nM.

And the GI50 (NCI-H460 lung)?
The GI50 was 410 nM.

And the TGI (NCI-H460 lung)?
Its TGI is greater than 100000 nM.

What about the GI50 (HT29 colon) of the same compound?
Its GI50 is 442 nM.

And the TGI (HT29 colon)?
Its TGI is greater than 100000 nM.

What about the GI50 (EKVX NSCLC) of the same compound?
The GI50 was 2430 nM.

What about the TGI (EKVX NSCLC) of the same compound?
The TGI was greater than 100000 nM.

And the GI50 (SF-268 CNS)?
The GI50 was 1140 nM.

And the TGI (SF-268 CNS)?
Its TGI is greater than 100000 nM.

And the GI50 (SNB-19 CNS)?
The GI50 was 734 nM.

What about the TGI (SNB-19 CNS) of the same compound?
Its TGI is greater than 100000 nM.

And the GI50 (UACC-62 melanoma)?
The GI50 was 489 nM.

What about the TGI (UACC-62 melanoma) of the same compound?
Its TGI is greater than 100000 nM.
